This note sets out measurements from PubChem BioAssay AID2305 (GlaxoSmithKline (GSK), 2010).

This experiment has as its system P. falciparum 3D7 growth, pLDH absorbance. The experiment can be described thus: P. falciparum 3D7 growth inhibition, dose response, strain 3D7 (AID 2305).

Structures are written as SMILES. “And” between values parts separate entries of the source, which are not always exact repeats. Identical values can stand only once.

As usually defined, the IC50 is the concentration that gives 50% inhibition. Low values mean higher potency, high ones lower potency. As for `COc1cc(C(C)C)nc2ccc(NC(=O)c3ccc(C(=O)Nc4ccc5nc(C(C)C)cc(OC)c5c4)cc3)cc12`, the IC50 is 580 nM. To `OC(CNC12CC3CC(CC(C3)C1)C2)c1cccc(C(F)(F)F)c1` (centres undefined) belongs 300 nM; to `CC(Cc1ccc(COc2ccc(CC(CO)NCCc3cccc(Cl)c3)cc2)cc1)NCCc1cccc(Cl)c1` (centres undefined), 820 nM; to `CC(C)(C)c1ccc(C(=O)N2CCC3(CC2)C(=O)N(CC(=O)NCC2CCCO2)CN3c2ccccc2)cc1` (centres undefined), 230 nM. To `CNCC(C)(C)c1nc(-c2ccc(Cl)c(O)c2)c(-c2ccncc2)[nH]1` belongs 740 nM.

`COCCNCc1ccc(-c2ccc3c(Nc4ccc(F)cc4Cl)ccnc3c2)o1` displayed an IC50 of 210 nM. In the case of `CNCc1ccc2nc(-c3coc(Cc4cc(Cl)ccc4OCC(C)C)n3)[nH]c2c1` it was 840 nM; in that of `CC1CN(c2ccc(C(=O)NCC3CC3)cc2NC(=O)OCc2ccccc2)CC(C)O1` (centres undefined), 1300 nM. In the case of `CNCCNc1nccc(N2CCc3ncnc(Nc4ccc(OCc5cccc(F)c5)c(Cl)c4)c3C2)n1` it was 200 nM; in that of `O=C(/C=C/c1c(Cl)cccc1Cl)NC1CCC(CN2CCC(c3c[nH]c4ccccc34)CC2)CC1` (centres undefined), 370 nM and 810 nM; in that of `CC(C)CNCc1ccc(-c2ccc(CN(C(=O)NC3CCCCC3)C3CCN(Cc4ccccc4)CC3)cc2)cc1`, 780 nM.

`CN(C)Cc1ccc2cc(NC(=O)c3ccc(-c4ccc(Cl)cc4)cc3)ccc2n1`: the IC50 was 850 nM. To `Cc1cc(-c2nc3ccc(C(=O)NCc4ccccc4)cc3n2C2CCN(C(=O)c3ccc(-c4ccccc4)cc3)CC2)ccn1` belongs 900 nM. To `C=C(NC(=O)C1CCCCC1)C(=O)OC` belongs 850 nM. To `COc1ccc(CNCc2ccc(F)cc2)cc1-c1cccc(S(=O)(=O)NCCN2CCCC2)c1` belongs 800 nM; to `COc1ccc2nccc([C@@H](O)CN3CCC(NC(=O)/C=C/c4cc([N+](=O)[O-])ccc4OC)CC3)c2c1`, 260 nM. With `O=C(CCc1ccccc1)NC(c1ccc(Cl)cc1)c1ccc2cccnc2c1O` (centres undefined), the IC50 came out at 850 nM. In the case of `CCOC(=O)c1ccc(OCCOc2ccccc2)cc1` it was 370 nM; in that of `O=C(CN(c1cccc(C(F)(F)F)c1)S(=O)(=O)c1ccc(Cl)cc1)NCCC(c1ccccc1)c1ccccc1`, 740 nM; in that of `CC(CO)(CO)NCc1cc2ccc3ccsc3c2c2ccccc12`, 230 nM. To `CC(=O)Nc1ccc(C(=O)Nc2cccc(-c3ccc(-c4nc5ccccc5[nH]4)s3)c2)cn1` belongs 180 nM. To `COc1ccc2nc3cc(Cl)ccc3c(NCCCCNc3c4ccc(Cl)cc4nc4ccc(OC)cc34)c2c1` belongs 160 nM; to `NC(=O)c1cccc(-n2ccc3cc(CNC4Cc5ccccc5C4)ccc32)c1`, 1130 nM. Turning to `CC(C)Cn1ncc2c3c(N)nc(N)nc3ccc21`, the IC50 is 160 nM. To `COc1ccc2ncc(F)c(CCN3CCC[C@H](CNCc4ccc5c(n4)NC(=O)CS5)C3)c2n1` belongs 970 nM; to `CC(=O)Nc1ccc(CN(Cc2ccc(F)cc2)Cc2cccc(Oc3ccccc3)c2)cc1`, 940 nM; to `C[C@@H]1CC[C@H](NC(=O)[C@H](CC2CCCC2)NC(=O)N2CCNCC2)C(=O)CN1S(=O)(=O)c1ccccn1`, 890 nM. In the case of `Cc1cc(-c2nc3ccc(N4CCN(C)CC4)cc3[nH]2)nn1Cc1cc(Cl)ccc1OCC(C)C`, the IC50 came out at 880 nM. In the case of `COc1ccc(CNC2CCN(c3ccc(NC(=O)c4cccc(Cl)c4)cc3)CC2)cc1OC` it was 1020 nM. To `COc1cc(NC(=O)c2nn(CCCN3CCC4(CC3)C(=O)NCN4c3ccccc3)cc2-c2ccc(Cl)c(Cl)c2)cc(OC)c1OC` belongs 750 nM; to `CN(C(=O)c1nn(-c2ccccn2)c2nccc(-c3cccs3)c12)C1CCCCC1`, 1240 nM; to `COc1ccc(Cn2c(SCc3ccc(C)cc3)nc3cc(OC)c(OC)cc3c2=N)cc1Cl`, 980 nM. To `Cc1csc(NC(=O)c2cn(-c3ccccc3)nc2-c2cccs2)n1` belongs 910 nM.

In the case of `CC(C)c1ccc(CN2CCC(CNC(=O)c3cc(-c4cccc(Cl)c4)cs3)C2)cc1` (centres undefined), the IC50 stood at 750 nM. To `Cc1cc(N2CCCC2)nc(Nc2ccc(NC(=O)COc3ccccc3)cc2)n1` belongs 650 nM; to `COC(=O)c1ccc(N2CCN(CCCCNC(=O)c3ccc(NC(=O)c4ccc(Cl)cc4)cc3)CC2)c(OC)c1`, 1300 nM; to `Cc1ccc(CNC(=O)[C@H](CC(C)C)Nc2cc(C)nc(Nc3ccccc3)n2)cc1`, 1770 nM. In the case of `CC(C)Nc1ccc(Nc2ccnc3cc4ccccc4cc23)cc1` it was 140 nM; in that of `O=C(Nc1ccc(S(=O)(=O)N2CCCCC2)cc1)c1cc(-c2ccccc2O)n[nH]1`, 850 nM.

On to `CCNC[C@H]1CCCN1CCOc1ccc(-n2cnc3cc(-c4ccc(Cl)cc4)sc3c2=O)cc1OC`, for which the IC50 worked out at 810 nM.

`CSc1nc2nc(C)c(Cc3cccc(F)c3)c(C)n2n1`: the IC50 stood at 900 nM. For `CCC[C@@H]([C@@H](CC(C)C)C(=O)N[C@H](C(=O)Nc1nccs1)C(C)(C)SCCNC(=O)OCC)N(O)C=O`, the IC50 was determined as 170 nM. To `CN(C)c1ccc(-c2ccc(C(=O)NC3CCN(Cc4ccccc4F)CC3)s2)cc1` belongs 1400 nM; to `COc1cc(Cl)c(C)cc1N(Cc1ccccc1-c1ccccc1)S(=O)(=O)c1ccc(C(F)(F)F)cc1`, 1050 nM. To `CN(CC(=O)Nc1cc(C(F)(F)F)ccc1-n1cncn1)Cc1ccc2ccccc2c1` belongs 230 nM.

Molecule `CN(C)CCNCc1nc(-c2ccc3c(Nc4ccc(Cl)cc4F)ccnc3c2)cs1` showed an IC50 of 810 nM.

In the case of `O=S(=O)(/C=C/c1ccccc1)N(Cc1ccc(-c2ccc(CNCCOc3ccccc3)cc2)cc1)CC1CCCCN1` (centres undefined), the IC50 worked out at 740 nM. As to `COc1ccc2nccc([C@@H](O)CN3CCC(NCc4cc5cc([N+](=O)[O-])ccc5[nH]4)CC3)c2c1`, the IC50 worked out at 120 nM. To `COc1cc(F)c2ncc(Cl)c(CCN3CCC(NCc4cc5c(cn4)OCCO5)CC3)c2c1` belongs 480 nM; to `c1ccc(CCNc2ccnc(Nc3ccc4n[nH]nc4c3)n2)cc1`, 860 nM; to `Cc1cccc2[nH]c(-c3ccc(-c4cccc(CN5CCCC5CN)c4)s3)nc12` (centres undefined), 870 nM. To `COc1cc(-n2c(CN3CCCC3)nc3cc(-c4ccc(Cl)cc4)sc3c2=O)ccc1OCCN1CCCC1` belongs 1040 nM; to `CCN(CC)CCN(Cc1ccc(-c2ccc(C(F)(F)F)cc2)cc1)C(=O)Cn1c(SCc2ccc(F)cc2)nc(=O)c2ccccc21`, 770 nM; to `Cc1[nH]c(C)c(-c2csc3ccccc23)c(=O)c1Cl`, 1020 nM. In the case of `Clc1ccc(CNc2ccnc(NCCc3coc4ccccc34)n2)c(Cl)c1` it was 1170 nM; in that of `Cc1cc(C(F)(F)F)n2nc(C3CCN(Cc4cc(C)c(O)c(C)c4)C3)cc2n1` (centres undefined), 760 nM; in that of `CC(=O)c1ccc(N2CCN(C(=O)Nc3ccc(Cl)cc3)CC2)cc1`, 980 nM. As to `O=C(NCCCCN1CCC(c2ccc3c(c2O)CCCC3)CC1)c1ccc(-c2ccc(Cl)cc2)cc1`, the IC50 is 750 nM. To `CS(=O)(=O)Cc1ccc(Nc2nccc(-c3c(-c4cccc(NC(=O)c5c(F)cccc5F)c4)nn4ccccc34)n2)cc1` belongs 150 nM; to `Cc1cc(OCCCN2CCCCC2)ccc1NC(=O)COc1ccc(Cl)cc1C(=O)c1cc(Cl)cc(C#N)c1`, 890 nM; to `CO[C@H](C)[C@H](NC(=O)[C@H](CC(C)C)[C@H](CCC(F)(F)F)N(O)C=O)C(=O)Nc1nccs1`, 110 nM. With `Cn1c(=O)c(-c2c(Cl)cccc2Cl)cc2cnc(Nc3ccc(N4CCOCC4)cc3)nc21`, the IC50 was 160 nM.

Regarding `COc1cc2nc(N3CCC(CNC(=O)c4ccc(-c5ccc(-c6noc(C)n6)cc5C)cc4)CC3)nc(N)c2cc1OC`, the IC50 was 220 nM.

Turning to `Cc1cc(OCCCN2CCC(NS(=O)(=O)c3cccc(Br)c3)C2)c2ccccc2n1` (centres undefined), the IC50 worked out at 1210 nM. On to `COCCCN=C(N)c1ccc(NC(=O)c2ccc(C(=O)Nc3ccc(C(N)=NCCCOC)cc3)cc2)cc1`, for which the IC50 was 50 nM.

The molecule `Cn1nc(-c2ccc(CN[C@@H]3CCc4ccc(O)cc43)cc2)c2cnc(NC3CCCC3)nc21` gave an IC50 of 1120 nM. In turn, `CCNc1cc(C)nc(Nc2ccc(NC(=O)c3ccco3)cc2)n1` showed an IC50 of 1090 nM. To `CCN(CC)CCN(Cc1ccc(-c2ccc(C(F)(F)F)cc2)cc1)C(=O)Cn1cc(Cc2cnn(C)c2)c(=O)n2nc(-c3ccccc3)cc12` belongs 730 nM; to `CC(C)C[C@H](NC(=O)[C@H](Cc1ccccc1)N(C[C@H](Cc1ccccc1)NC(=O)OC(C)(C)C)C(=O)C(F)(F)F)C(=O)NC1CCN(Cc2ccccc2)CC1`, 530 nM.

With `Cc1[nH]c(C)c(-c2ccc(CCc3ccc(F)cc3F)cc2)c(=O)c1Br`, the IC50 was 10 nM. In the case of `CN(CC(=O)Nc1ccc(F)c(F)c1F)c1ncnc2sc(-c3ccccc3)cc12` it was 870 nM; in that of `Cc1ccc(CNc2cc(C(F)(F)F)nc(-c3ccc(S(C)(=O)=O)cc3)n2)cc1`, 500 nM; in that of `CC(C)CCNC(=O)C1Cc2c([nH]c3ccc(Br)cc23)C2(CCN(Cc3ccccc3)CC2)N1` (centres undefined), 820 nM. To `COc1cc(C(=O)Nc2cccc(-c3nc4ccccc4[nH]3)c2)cc(OC)c1OC` belongs 720 nM; to `CCCCCCN1CCC(NCc2cccc(-n3ccnc3)c2)CC1`, 250 nM. To `CCN1CCC(N(Cc2ccc(-c3ccc(C(F)(F)F)cc3)o2)C(=O)Cn2c(CCc3cccc(F)c3F)nc(=O)c3ccccc32)CC1` belongs 1140 nM; to `C=CCOC(=O)N1CCC(CNCc2ccc(-c3cccc(-c4nc5c(C)cccc5[nH]4)c3)cc2)C1` (centres undefined), 120 nM. With `Cc1cc(Cc2ccc(S(=O)(=O)c3cc4c(cc3O)CCN(C)CC4)cc2)ccc1Cl`, the IC50 turned out to be 910 nM.

`CCCCCCCCNCCCSCCCNCCCCCCCC`: the IC50 turned out to be 1230 nM. To `COc1ccc(Nc2nccc(-c3ccc(NC(=O)c4cc5cc(F)ccc5[nH]4)cc3)n2)cc1` belongs 630 nM; to `CC(C)(C)c1ccc(O)c(CNC2CCCCC2)c1`, 260 nM; to `CCOC(=O)c1ccc(N=C2SC(=Cc3cc(Br)ccc3O)C(=O)N2C)cc1`, 1000 nM. In the case of `CC(=O)Nc1nc(C(=O)Nc2ccc(-c3ccc(-c4nc5ccccc5[nH]4)cc3)cc2)cs1` it was 150 nM. In turn, `O=C(Nc1cccc([N+](=O)[O-])c1)Nc1ccc(Cl)c(C(F)(F)F)c1` yielded an IC50 of 1120 nM.
